Assays:
MS751 cells = assay: MTT cell proliferation assay, MS751; type: cell-based, human; conditions: Homo sapiens, MS751, MS751 cells, approximately 64-72 hours incubation; read-out: MTT Assay IC50, MS751
Summary of the method: (§1)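 Absorbance at 490 nm of solubilized formazan, produced during roughly 4 h MTT incubation, gave percent inhibition relative to negative control. Compounds spanned eight concentrations between 1 nM and 30 μM on cells plated overnight at 5,000-10,000 per well.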

Z138 cells = assay: MTT cell proliferation assay, Z138; type: cell-based; conditions: Homo sapiens, Z-138, Z138 cells, approximately 64-72 hours incubation; read-out: MTT Assay IC50, Z138
Summary of the method: as §1

3T3 cells = assay: MTT cell proliferation assay, 3T3; type: cell-based, mouse; conditions: Mus musculus, NIH3T3, 3T3 cells, approximately 64-72 hours incubation; read-out: MTT Assay IC50, 3T3
Summary of the method: as §1

MM1S cell line = assay: MTT cell proliferation assay, MM1S; type: cell-based; conditions: Homo sapiens, MM1.S, incubation approximately 64-72 hours
Protocol: (§2) The MTT cell proliferation assay was used to study the cytotoxic properties of the compounds. The assay was performed according to the method described by Roche Molecular Biochemicals, with minor modifications. The assay is based on the cleavage of the tetrazolium salt, MTT, in the presence of an electron-coupling reagent. The water-insoluble formazan salt produced must be solubilized in an additional step. Cells grown in a 96-well tissue culture plate were incubated with the MTT solution for approximately 4 hours. After this incubation period, a water-insoluble formazan dye formed. After solubilization, the formazan dye was quantitated using a scanning multi-well spectrophotometer (ELISA reader). […] The cells were seeded at 5,000-10,000 cells in each well of 96-well plate in 100 μL of fresh culture medium and were allowed to attach overnight. The stock solutions of the compounds were diluted in 100 μL cell culture medium to obtain eight concentrations of each test compound, ranging from 1 nM to 30 μM. […] All optical densities were measured at 490 nm using a Vmax Kinetic Microplate Reader (Molecular Devices). In most cases, the assay was performed in duplicate and the results were presented as a mean percent inhibition to the negative control±SE. The following formula was used to calculate the percent of inhibition: Inhibition (%)=(1-(ODo/OD)) ×100.
The M24 cell line is derived from human melanoma cells. The U2OS cell line is a human osteosarcoma cell line expressing wild type p53 and Rb, but lacking p16. The MM1S cell line is a multiple myeloma cell line; the parent cell line, MM.1, was established from peripheral blood of a multiple myeloma patient who had become resistant to steroid-based therapy. The RPMI8226 cell line is derived from human B lymphocyte cells. NHDF cells are normal human dermal fibroblast cells. The MRC-5 cell line is derived from normal lung tissue of a fetus. The LN18 cell line is a human malignant glioma cell line. The DU-145 cell line is a human prostate cancer cell line. A549 cells are human adenocarcinomic human alveolar basal epithelial cells. […]

LN18 cell line = assay: MTT cell proliferation assay, LN18; type: cell-based; conditions: Homo sapiens, LN-18, incubation approximately 64-72 hours
Protocol: as §2, with “×100. […]” for “×100.”

A549 cells = assay: MTT cell proliferation assay, A549; type: cell-based; conditions: Homo sapiens, incubation approximately 64-72 hours
Protocol: as §2, with “×100. […]” for “×100.”

MOLT4 cell line = assay: MTT cell proliferation assay, MOLT4; type: cell-based; conditions: Homo sapiens, MOLT-4, incubation approximately 64-72 hours
Protocol: as §2, with “×100. […]” for “×100.”

THP1 cell line = assay: MTT cell proliferation assay, THP1; type: cell-based; conditions: Homo sapiens, THP-1, incubation approximately 64-72 hours
Protocol: as §2, with “×100. […]” for “×100.”

OCIAML5 cell line = assay: MTT cell proliferation assay, OCIAML5; type: cell-based; conditions: Homo sapiens, OCI-AML-5, incubation approximately 64-72 hours
Protocol: as §2, with “×100. […]” for “×100.”

MDA-MB-231 cell line = assay: MTT cell proliferation assay, MDA-MB-231; type: cell-based; conditions: Homo sapiens, incubation approximately 64-72 hours
Protocol: as §2, with “×100. […]” for “×100.”

HL-60 cells = assay: MTT cell proliferation assay, HL-60; type: cell-based; conditions: Homo sapiens, incubation approximately 64-72 hours
Protocol: as §2, with “×100. […]” for “×100.”

Hep G2 cells = assay: MTT cell proliferation assay, Hep G2; type: cell-based; conditions: Homo sapiens, HepG2, incubation approximately 64-72 hours
Protocol: as §2
The M24 cell line is derived from human melanoma cells. The U2OS cell line is a human osteosarcoma cell line expressing wild type p53 and Rb, but lacking p16. The MM1S cell line is a multiple myeloma cell line; the parent cell line, MM.1, was established from peripheral blood of a multiple myeloma patient who had become resistant to steroid-based therapy. The RPMI8226 cell line is derived from human B lymphocyte cells. NHDF cells are normal human dermal fibroblast cells. The MRC-5 cell line is derived from normal lung tissue of a fetus. The LN18 cell line is a human malignant glioma cell line. The DU-145 cell line is a human prostate cancer cell line. A549 cells are human adenocarcinomic human alveolar basal epithelial cells. The MOLT4 cell line is a human acute lymphoblastic leukemia cell line. The THP1 cell line is a human leukemic monocytic cell line derived from peripheral blood. The OCIAML5 cell line is a human acute myeloid leukemia cell line. The MDA-MB-231 cell line is a human breast adenocarcinoma cell line. The MDA-MB-468 cell line is a human breast carcinoma cell line. HL-60 cells are human promyelocytic leukemia cells. Hep G2 cells are human hepatocellular carcinoma cells. HEP 3B cells are human hepatocellular carcinoma cells. The DLD-1 cell line is a colorectal adenocarcinoma cell line. The HCT-15 cell line is a human colon carcinoma cell line. The Colo-205 cell line is derived from a human adenocarcinoma of the colon. […]

HCT-15 cell line = assay: MTT cell proliferation assay, HCT-15; type: cell-based; conditions: Homo sapiens, incubation approximately 64-72 hours
Protocol: as §2, with “×100. […]” for “×100.”

Daudi cell line = assay: MTT cell proliferation assay, Daudi; type: cell-based; conditions: Homo sapiens, incubation approximately 64-72 hours
Protocol: as §2, with “×100. […]” for “×100.”

L3.6pl cell line = assay: MTT cell proliferation assay, L3.6pl; type: cell-based; conditions: Homo sapiens, incubation approximately 64-72 hours
Protocol: as §2, with “×100. […]” for “×100.”

IC50 (MM1S cell line): < 100 nM
IC50 (A549 cells): 100 to 5000 nM
IC50 (MOLT4 cell line): < 100 nM
IC50 (THP1 cell line): 100 to 5000 nM
IC50 (MDA-MB-231 cell line): 100 to 5000 nM
IC50 (HL-60 cells): 100 to 5000 nM
IC50 (HCT-15 cell line): < 100 nM
IC50 (Daudi cell line): < 100 nM
Structure (SMILES): Nc1ccc(/C=C/C(=O)NCC2Cc3cc(-c4ccc(C(=O)N5CCOCC5)cc4)cc(Cl)c3O2)cn1 (stereo not drawn) [Compound 302, (E)-3-(6-Aminopyridin-3-yl)-N-((7-chloro-5-(4-(morpholine-4-carbonyl)phenyl)-2,3-dihydrobenzofuran-2-yl)methyl)acrylamide]
IC50 (MS751 cells): < 100 nM
IC50 (Z138 cells): < 100 nM
IC50 (3T3 cells): 100 to 5000 nM
IC50 (LN18 cell line): 100 to 5000 nM
IC50 (OCIAML5 cell line): < 100 nM
IC50 (Hep G2 cells): < 100 nM
IC50 (L3.6pl cell line): 100 to 5000 nM
